Test results: patent US20230135100A1, “PROCESS OF PREPARING A PEPTIDE EPOXYKETONE IMMUNOPROTEASOME INHIBITOR, AND PRECURSORS THEREOF” (KEZAR LIFE SCIENCES, priority 2016, published 2023)
Values joined by “and” are separate entries in the source; they are usually repeats but may differ in a detail not shown here. Identical values can stand only once. Counter-ions that a name gives are not always drawn. Like-named read-outs stand apart in the source and are kept apart here.

Conditions: 25° C., relative humidity 40%

C[C@]1(C(=O)[C@@H](N)CC2=CCCC2)CO1 [Tosylate, (S)-3-(cyclopent-1-en-1-yl)-1-((R)-2-methyloxiran-2-yl)-1-oxopropan-2-aminium salt]
% Purity at Indicated Time (days) (90 days): 96.0 (90) % and 85.0 (90) %

C[C@]1(C(=O)[C@@H](N)CC2=CCCC2)CO1 [Trifluoroacetate, (S)-3-(cyclopent-1-en-1-yl)-1-((R)-2-methyloxiran-2-yl)-1-oxopropan-2-aminium salt]
% Decomposition (1 day): 5.7% and 8.8%
% Purity at Indicated Time (days) (1 day): 79.6 (1) % and 86.0 (1) %
